“Also recorded” adds a separate entry of the source.

This note sets out measurements from patent publication US10668108B2, “Compositions and methods of treating liver disease” (Children's Hospital Medical Center, priority 2016, dated 2020).

For assay [1], the system named is HLO. The assay is described as follows: ROS live-cell imaging with CellROX dye in HLO. It counts as cell-based, human. The note with it: for ROS production: 400 μM Intralipid treated HLO, live-cell imaging, CellROX. An excerpt:
Because there are no established ameliorative strategies, and PNALD is the leading indication for liver transplantation in infants (El Kasmi et al., 2013), we further investigated preventive and therapeutic effects of FXR agonist obeticholic acid (OCA) and FGF19 hormone that are activated by OCA, which have shown great potential in nonalcoholic steatohepatitis treatment (Dash et al., 2017; Kumar and Teckman, 2015; Neuschwander-Tetri et al., 2015). To implicate the therapeutic significance of OCA and FGF19 for PNALD like pathology in HLO, OCA and FGF19 were added to 400 μM Intralipid exposed HLO. […] Mechanistically, the accumulation of reactive oxygen species (ROS) is strongly associated with the fatty liver related hepatocyte death (Nandivada et al., 2013; Tsedensodnom and Sadler, 2013). We thus wondered whether OCA and FGF19 would inhibit the production of ROS so we sought to confirm that theory with live-cell imaging with CellROX dye.
Phagocyte, lipids, ROS live-cell imaging. After being cultured in an ultra-low attachment 6 multi-well plate, 5-10 HLO were picked up and seeded in a Microslide 8 Well Glass Bottom plate (Ibidi, WI, USA) and subjected to live-cell staining. The following antibodies were used: pHrodo® Red S. aureus Bioparticles® Conjugate for Phagocyte activity (Thermo Fisher Scientific Inc.), BODIPY® 493/503 for lipids (Thermo Fisher Scientific Inc.), Di-8-ANEPPS for membrane (Thermo Fisher Scientific Inc.), and CellROX green reagent for ROS detection (Thermo Fisher Scientific Inc.). Nuclear staining was marked by NucBlue Live ReadyProbes Reagent (Thermo Fisher Scientific Inc.). […] The final lipid droplet volume was calculated by IMARIS8 and normalized by each organoid size. Significance testing for lipid droplet volume and ROS production (%) was conducted by Student's t-test.

The test system of assay [2] is HLO. The assay is described as follows: HLO survival assay, Intralipid exposed HLO (PNALD model). It is filed as cell-based. The note with it: added to 400 μM Intralipid exposed HLO (PNALD-HLO); FGF19 40 ng/ml. An excerpt: PNALD is an iatrogenic fatty liver disease which occurs frequently in infants provided with parental nutrition (PN) solutions employing a lipid emulsion (Intralipid) that provide life-sustaining calories in the setting of inadequate absorption of enteral nutrients (Kumar and Teckman, 2015; Orso et al., 2016). PNALD has a histological evidence of steatosis, cell death (apoptosis), and fibrosis (Nandivada et al., 2013). To recapitulate PNALD pathology in HLO, we reconstituted components of Intralipid and placed it directly into HLO culture.
[…]; Kumar and Teckman, 2015; Neuschwander-Tetri et al., 2015). To implicate the therapeutic significance of OCA and FGF19 for PNALD like pathology in HLO, OCA and FGF19 were added to 400 μM Intralipid exposed HLO. […] Mechanistically, the accumulation of reactive oxygen species (ROS) is strongly associated with the fatty liver related hepatocyte death (Nandivada et al., 2013; Tsedensodnom and Sadler, 2013). We thus wondered whether OCA and FGF19 would inhibit the production of ROS so we sought to confirm that theory with live-cell imaging with CellROX dye. […]. […]
HLO survival assay. […] HLO were captured on The KEYENCE BZ-X710 Fluorescence Microscope every day. The surviving and dead organoids were counted manually from the photo. HLO with a rounded configuration was counted as the surviving while the organoids with out of shape is counted as dead. […]

Assay [3] concerns HLO. The assay is described as follows: HLO stiffness measurement by AFM. It is filed as cell-based, human. As to the method:
To further determine whether OCA and FGF19 have an impact on fibrosis, HLO stiffness was assessed. Organoid damage induced by Intralipid is extremely significant and treated HLOs for 5 days are not able to be stabilized on a dish, which is a minimal requirement for assessing the rigidity by AFM. To circumvent this limitation, the stiffness was assessed at Day3.
LPS and FFA exposure and OCA and FGF19 treatment. 20-30 hLOHLO, which had been isolated from Matrigel and washed by 1×PBS, were divided into each condition and cultured on an ultra-low attachment 6 multi-well plates (Corning). […]
HLO stiffness measurement by AFM. […] The AFM head with a silicon nitride cantilever (CSC37, k=0.3 N/m, MikroMasch, Bulgaria) was mounted on a fluorescence stereo microscope (M205 FA, Leica, Germany) coupled with a Z-axis piezo stage (JPK CellHesion module, JPK Instruments, Germany), which allows the indentation measurement up to the depth of ˜100 μm. […] The sample dish was then placed onto the AFM stage, and force-distance curves in a 14×14 matrix in a 25×25 μm square were measured from each HLO. Finally, Young's moduli (E, Pa) of HLOs were determined by fitting the obtained force-distance curves with the modified Hertz model (Sneddon, 1965). […]

The subject of assay [4] is HLO. The assay is described as follows: HLO survival, 800 μM OA treated HLO (3D cell titer glo). It is filed as cell-based, human. The settings on record: 800 μM OA + FGF19 40 ng/ml, same time point. As to the method:
LPS and FFA exposure and OCA and FGF19 treatment. 20-30 hLOHLO, which had been isolated from Matrigel and washed by 1×PBS, were divided into each condition and cultured on an ultra-low attachment 6 multi-well plates (Corning). HLO were cultured with LPS (Sigma), OA (Sigma), LA (Sigma), SA (Sigma), or PA (Sigma) and collected at day 1 and 3 (for LPS HLO) and at day 3 and 5 (for OA) after the culture. To test the inhibitory effect of OCA (INT-747, MedChem Express, NJ, USA) and human FGF19 recombinant (Sigma) on HLO, 20-30 HLO were cultured in HCM media in the presence or absence of oleic acid (800 μM), and 1 μM OCA and 40 ng/ml FGF19 were added into 800 μM OA condition. HLO were collected at day 3 for lipids live-cell imaging and at day 5 for stiffness measurement.
HLO survival assay. HLO were collected from Matrigel and washed by 1×PBS. 30-40 organoids were cultured on an ultra-low attachment 6 multi-well plate (Corning). HLO were captured on The KEYENCE BZ-X710 Fluorescence Microscope every day. The surviving and dead organoids were counted manually from the photo. HLO with a rounded configuration was counted as the surviving while the organoids with out of shape is counted as dead. To assess the survival rate of OA treated HLO at the same time point, 3D cell titer glo assay was used (Promega, Wi, USA).

For the compound `CC[C@H]1[C@@H](O)[C@@H]2[C@H](CC[C@]3(C)[C@@H]([C@H](C)CCC(=O)O)CC[C@@H]23)[C@@]2(C)CC[C@@H](O)C[C@@H]12` [OCA, obeticholic acid, reference compound], in the assay with HLO [1], the ROS production is 20%. Also, the “number of surviving organoids” value with HLO [2] is “around 83%”.

Turning to “FGF19: human FGF19 recombinant (Sigma); hormone activated by OCA”, in the assay with HLO [3] (800 μM OA + FGF19 40 ng/ml), the “stiffness of OA treated HLO (AFM)” value is listed as “significantly softened; also recorded: decreased”. The “progression of fibrosis (HLO stiffness)” value in the assay on HLO [3] (Intralipid treated HLO, stiffness assessed at Day3) is “reduce the progression of fibrosis”. Moreover, the “survival of 800 μM OA HLO” value in the assay on HLO [4] is “significantly improved”. In the assay on HLO [1], this compound came in with an ROS production of 30%. Further, the “effect on ROS production caused by 400 μM Int” value in the assay with HLO [1] (400 μM Intralipid, FGF19 40 ng/ml) is given as “inhibit the ROS production”. Besides, the “number of surviving organoids” value with HLO [2] is listed as roughly 78%.
